Assay results: patent publication US20240139162A1, “Benzophenanthridine Alkaloids and Their Methods of Use” (Chengdu Anticancer Bioscience, LTD., priority 2019, published 2024)
“And” between values parts separate entries of the source, which are not always exact repeats. Identical values can stand only once. “Also recorded” adds a separate entry of the source. Like-named read-outs stand apart in the source and are kept apart here.

What was measured:
Rat1A cells = assay: IC50 in Rat1A cells (Table 2); type: cell-based
Description: (§1) Cells were split, plated in appropriate culture media and allowed to adhere. After 18 hours, corynoline and acetylcorynoline were added to a cell line selected from below. At 72 h or 96 h, MTT was added and at 75 h or 99 h, the A570 nm was recorded. The concentration ranged from 0.02 μM to 40 μM.
(§2) The following Rat1A cell lines were used in these studies: Rat1 A C, Rat1A MYC, Rat1A E2F1, and Rat1A E2F3. The cell line was then engineered as control (C), to overexpress the MYC oncogene (Rat1A-MYC), to overexpress the E2F1 oncogene (Rat1A-E2F1), or to overexpress the E2F3 oncogene (Rat1A-E2F3).
(§3) The effect of the compounds chelidonine and protopine on cell division was assessed similarly to corynoline and acetylcorynoline above. As described in Example 6 above, as cells enter and become arrested in mitosis, they detach from the plate surface and appear as rounded cells with a smooth surface membrane. RPE-MBC cells (ectopically expressing oncogenes MYC and Bcl2) were treated with DMSO, chelidonine and protopine, and compared against controls Michael's ketone (MK) and taxol.

IMR 90 cells = assay: IC50 in IMR 90 cells (Table 2); type: cell-based; settings: Homo sapiens, IMR-90, 72 h
Description: as §1, §3

3T3 MEF cells = assay: IC50 in 3T3 MEF cells (Table 2); type: cell-based
Description: as §1, §3

RPE MBC cells = assay: Spindle pole assembly by β-tubulin / Histone H3ser10P immunofluorescence; type: cell-based, human
Description: Microtubule assembly, specifically spindle pole assembly, was altered by treatment with acetylcorynoline. RPE MBC cells were treated with acetylcorynoline and Histone H3 Serine 10 Phosphorylation (Histone H3ser10p, shown in FIG. 4 and FIG. 5 in red), β-tubulin (green) and DNA (blue) was analyzed by immunofluorescence microscopy. Histone H3ser10P was used to determine the cells that were in early mitosis (e.g., prometaphase or metaphase). β-tubulin was used to examine microtubule localization and spindle assembly within the cells.
Similarly to corynoline and acetylcorynoline above, it was determined that microtubule assembly, specifically spindle pole assembly, was altered by treatment with chelidonine.

RPE-Neo cells = assay: IC50 in RPE-Neo cells (Table 2); type: cell-based, human
Description: as §1
(§4) The following RPE cell lines were used in these studies: RPE NEO, RPE MBH, RPE MBC, RPE MA, RPE MP, RPE MI, and RPE MYC Nick. This RPE series were derived from human retinal pigment epithelium and then stably transfected with an hTERT expression construct for immortalization. The resulting cell line was then engineered to overexpress the MYC oncogene (RPE-MYC) or a Neomycin selection marker gene (RPE-NEO). In RPE-MYC cells, a variety of other oncogenes such as Myr-AKT, BCL2, ID1 and PI3K^E45k were further introduced individually to generate the cell lines RPE MA, RPE MBC, RPE MI, RPE MP, respectively. As a control, H2BGFP was introduced into RPE-MYC cells to generate RPE MBH.
as §3

RPE-MBC cells [1] = assay: IC50 in RPE-MBC cells (Table 1); type: cell-based, human
Description: Retinal pigment epithelial cells transformed by ectopic MYC and Bcl-2 expression (RPE-MBC cells) have been described previously (e.g., Goga et al., 2007, Nat. Med., 13 (7):820-827) and were cultured in DMEM supplemented with 5% fetal bovine serum in a humidified incubator that was maintained at 5% CO2. For screening for bioactive fractions, cells were cultured in 96-well plates, and exposed to crude extracts, partially purified fractions or pure compounds at the concentrations indicated in the figure legends. Exposure was for 24 or 48 hours before analysis of cells for either an arrest in mitosis using an inverted microscope or for a change in DNA content after 4′,6′-diamidino-2-phenylindole (DAPI) staining by fluorescence microscopy.
The RPE series were derived from human retinal pigment epithelium and then stably transfected with a hTERT expression construct for immortalization. The resulting cell line was then engineered to overexpress the MYC and BCL2 oncogenes, generating the RPE MBC cell line. This cell line mimics cancer cells that overexpress MYC and Bcl2, and readily forms viable polyploid cells when cytokinesis is prevented.
as §1, §3

RPE-MBH cells = assay: IC50 in RPE-MBH cells (Table 1); type: cell-based, human
Description: as §1, §4, §3

RPE-MBC cells [2] = assay: Mitotic arrest (cell round-up, phospho-Histone H3) and polyploidy (DAPI) assay; type: cell-based, human; settings: for mitotic arrest: 24 hours after treatment; for polyploidy (DAPI staining): 48 hours after treatment; for persistence of the arrest of cells in mitosis: within 48-hour treatment
Description: For screening for bioactive fractions, cells were cultured in 96-well plates, and exposed to crude extracts, partially purified fractions or pure compounds at the concentrations indicated in the figure legends. Exposure was for 24 or 48 hours before analysis of cells for either an arrest in mitosis using an inverted microscope or for a change in DNA content after 4′,6′-diamidino-2-phenylindole (DAPI) staining by fluorescence microscopy.
(§5) Cells were cultured on coverslips in a 6-well plate, fixed with 4% paraformaldehyde and then permeabilized with 0.3% Triton X-100 in PBS. Primary antibody was detected with Texas-Red-conjugated secondary antibodies that were purchased from Jackson ImmunoResearch. After immunostaining, cells were mounted on microscope slides with 4′,6′-diamidino-2-phenylindole (DAPI)-containing Vectashield mounting solution (Vector Laboratories) for detection of fluorescence with an EVOS FL fluorescence microscope (ThermoFisher).
Cellular “round-up” was used as a surrogate marker for mitotic arrest and could easily be assayed using an inverted tissue culture microscope. […] Mitotic arrest was judged by cell round-up observed under an inverted tissue culture microscope 24 hours after exposing cells to the library.
As cells enter and become arrested in mitosis, they detach from the plate surface and appear as rounded cells with smooth surface membrane, distinct from detached cells that are undergoing programmed cell death. Simple visual screening method was used to assay thousands of extracts. […] To identify bioactive components that are able to interfere with mitosis, 3 kg of Corydalis longicalcarata rhizome were recollected and performed bioactivity-guided extraction, isolation, and purification. The air dried and powdered material was extracted with 70% ethanol assisted by exposure to ultrasonic waves.

RPE-A19 cells = assay: IC50 in RPE-A19 cells (Table 2); type: cell-based, human
Description: as §1, §3

[3] = system: RPE cell lines (RPE NEO, RPE MBH, RPE MBC, RPE MA, RPE MP, RPE MI, RPE MYC Nick); assay: MTT assay, RPE cell lines expressing oncogenes; type: cell-based, human; settings: RPE cell lines compared with RPE NEO control (FIG. 11)
[4] = system: Rat1A cell lines (Rat1A C, Rat1A MYC, Rat1A E2F1, Rat1A E2F3); assay: MTT assay, Rat1A cell lines expressing oncogenes; type: cell-based; settings: Rat1A cell lines compared to Rat1A C (FIG. 12)
Description: as §1, §2

[5] = system: all tested cell lines (RPE, Rat1A and human cancer cell lines); assay: MTT assay, IC50 across all of the cell lines tested; type: cell-based; settings: for IC50: Homo sapiens
aurora-B kinase = assay: Phosphorylation of Histone 3 at Ser10 as surrogate of aurora-B kinase activity; type: cell-based
Description: as §5

[6] = system: all tested cell lines (RPE, Rat1A and human cancer cell lines); settings: positive control, read-out: known IC50 value; cited from earlier work
[7] = 3T3 MEF, treatment 72 h, read-out: IC50
[8] = RPE-MBH, treatment 72 h, read-out: IC50
[9] = RPE-A19, treatment 72 h, read-out: IC50

Structure (SMILES)	IC50 (Rat1A cells; 72 h) [µM]	IC50 (IMR 90 cells) [µM]	IC50 (3T3 MEF cells; Mus musculus, MEF, 72 h) [µM]	IC50 (RPE-Neo cells; Homo sapiens, 72 h) [µM]	IC50 (RPE-MBC cells [1]; Homo sapiens, 72 h) [µM]	IC50 (RPE-MBH cells; Homo sapiens, 72 h) [µM]	mitotic arrest (RPE-MBC cells [2])	polyploidy (DAPI staining) (RPE-MBC cells [2])	persistence of the arrest of cells in mitosis (RPE-MBC cells [2])	IC50 (RPE-A19 cells; Homo sapiens, 72 h) [µM]	IC50 (3T3 MEF cells; [7])	IC50 (RPE-MBH cells; [8])	IC50 (RPE-A19 cells; [9])	other results
CN1Cc2c(ccc3c2OCO3)[C@@H]2[C@H]1c1cc3c(cc1C[C@@H]2O)OCO3 [Chelidonine, 5bR,6S,7,12bS,13,14-hexahydro-13-methyl-[1,3]benzodioxolo[5,6-c]-1,3-dioxolo[4,5-i]phenanthridin-6-ol]	1.11	2.43	1.52	1.11	> 40	2.32	Nearly all cells entered and arrested in mitosis	polyploidy was observed; also recorded: demonstrates polyploidy	transient	1.85	–	–	–	spindle formation (β-tubulin staining) (RPE MBC cells; 24 hours of treatment): multipolar spindles were formed; also recorded: multipolar spindle formation in mitosis; centrosomes (β-tubulin staining) (RPE MBC cells; analyzed after 24 or 48 hours): centrosome amplification and centrosome declustering
CN1Cc2c(ccc3c2OCO3)[C@@]2(C)[C@@H](O)Cc3cc4c(cc3[C@@H]12)OCO4 [Corynoline, (5bR)-5bα,13-Dimethyl-5bα,6,7,12bα,13,14-hexahydro[1,3]benzodioxolo[5,6-c]-1,3-dioxolo[4,5-i]phenanthridine-6β-ol]	8.61	> 40	12.2	7.06	8.87	15.1	can arrest mitosis within 24 hours of treatment	induce polyploidy at 48 hours	transient	10.6	–	–	–	change of IC50 after overexpression of oncogenic factors [3]: all declined, with the exception of RPE MA; change of IC50 after overexpression of oncogenes [4]: increased in the Rat1 A MYC cell line; IC50 [5]: 1 to 31 µM; IC50 compared with the other compound ([5]; all different cell lines): lower than acetylcorynoline; phosphorylation of Histone 3 at Ser10 (aurora-B kinase): not affected; mitotic arrest (RPE-MBC cells [2]; listed as corynoline): Nearly all cells entered and arrested in mitosis; polyploidy (DAPI staining) (RPE-MBC cells [2]; listed as corynoline): Polyploidy was observed; also recorded: demonstrates polyploidy; mitotic arrest and polyploidy, dependence on concentration (RPE-MBC cells [2]; FIG. 15): concentration-dependent
CN(C)c1ccc(C(=O)c2ccc(N(C)C)cc2)cc1 [MK, Michael's ketone, reference compound]	–	–	–	–	–	–	–	–	–	–	3.48 µM	0.303 µM	0.087 µM	IC50 (Rat1A cells; Rat1A, treatment 72 h, read-out: IC50): 1.65 µM; IC50 (RPE-Neo cells; RPE-Neo, treatment 72 h, read-out: IC50): 0.805 µM; IC50 (RPE-MBC cells [1]; RPE-MBC, treatment 72 h, read-out: IC50): 0.207 µM
CC(=O)O[C@H]1C(=O)[C@@]2(C)[C@H]([C@H](OC(=O)c3ccccc3)[C@]3(O)C[C@H](OC(=O)[C@H](O)[C@@H](NC(=O)c4ccccc4)c4ccccc4)C(C)=C1C3(C)C)[C@]1(OC(C)=O)CO[C@@H]1C[C@@H]2O [Taxol, paclitaxel]	–	–	–	–	–	–	–	without causing accumulation of polyploid cells	persistent arrest of cells in mitosis	–	0.062 µM and 0.096 µM	22.1 µM and 22.7 µM	15.7 µM and 13 µM	IC50 (IMR 90 cells; IMR 90, treatment 72 h, read-out: IC50): 6.98 µM; IC50 (3T3 MEF cells; Mus musculus, MEF, 72 h, 3T3 MEF, treatment 72 h, read-out: IC50): 0.075 µM; IC50 (RPE-MBC cells [1]; Homo sapiens, RPE-MBC, treatment 72 h, read-out: IC50): > 40 µM; IC50 ([5]; across all of the cell lines tested (FIG. 9), MTT at 72 h or 96 h, read-out: IC50): < 0.02 µM; IC50 [6]: < 0.02 µM; IC50 (RPE-MBH cells; Homo sapiens, 72 h, RPE-MBH, treatment 72 h, read-out: IC50): 31.4 µM; IC50 (RPE-A19 cells; Homo sapiens, 72 h, RPE-A19, treatment 72 h, read-out: IC50): 13.4 µM
CN1CCc2cc3c(cc2C(=O)Cc2ccc4c(c2C1)OCO4)OCO3 [protopine, 7-Methyl-6,8,9,16-tetrahydrobis[1,3]benzodioxolo[4,5-c:5′,6′-g]azecin-15(7H)-one]	–	–	–	–	–	–	Nearly all cells entered and arrested in mitosis	Polyploidy was observed	transient	–	–	–	–	–
CC[C@]1(O)C[C@@H]2CN(CCc3c([nH]c4ccccc34)[C@@](C(=O)OC)(c3cc4c(cc3OC)N(C)[C@H]3[C@@](O)(C(=O)OC)[C@H](OC(C)=O)[C@]5(CC)C=CCN6CC[C@]43[C@@H]65)C2)C1 [vinblastine, reference compound]	–	–	–	–	–	–	–	without causing accumulation of polyploid cells	persistent arrest of cells in mitosis	–	–	–	–	–
